Among the test systems are CAKI-1; CCRF-CEM; COLO 205; HCC 2998; HOP-62; HT-29; M14; NCI-H522; OVCAR-5; PC-3; SF-295; SN12C; SR; TK-10; U-251; UACC-257; HOP-92; RPMI-8226.
Holding throughout (assay): DTP human tumour cell line panel, 48 h

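Dose response: 5 concentrations. Exposure: 48 h. Format: 96-well plates. Endpoint: linear interpolation; highest concentration if not reached. GI50 marks 50% less growth.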 Activity calls are given as the source filed them. Cut-off read from the data, not from the text of the source: active = GI50 up to about 1.1 µM and inactive = higher.

The source of these data is ChEMBL document CHEMBL1201862, “PubChem BioAssay data set” (2004).

As usually defined, the GI50 is the concentration giving 50% growth inhibition. In the case of `CC1(C)O[C@@H](CP(c2ccc3ccccc3c2)c2ccc3ccccc3c2)[C@H](CP(c2ccc3ccccc3c2)c2ccc3ccccc3c2)O1`, the GI50 with CAKI-1 was > 100 µM (inactive); in the experiment on CCRF-CEM, > 100 µM (inactive); with COLO 205 it was > 100 µM (inactive); in the experiment on HCC 2998 it was > 100 µM (inactive); in the experiment with HOP-62, > 100 µM (inactive); in the experiment on HT-29 it was 85.5 µM (inactive). Moreover, the GI50 in the experiment on M14 is > 100 µM (inactive); with NCI-H522, 25.5 µM (inactive); in the experiment with OVCAR-5, > 100 µM (inactive); in the experiment on PC-3, 53.5 µM (inactive); in the experiment on SF-295, > 100 µM (inactive); in the experiment with SN12C, > 100 µM (inactive). Also, the GI50 in the experiment with SR was 77.8 µM (inactive); with TK-10 it was > 100 µM (inactive); with U-251 it was > 100 µM (inactive); in the experiment on UACC-257, > 100 µM (inactive).

`Cc1cn([C@@H]2O[C@H](CO[Si](C)(C)C(C)(C)C)[C@]3(O[C@H]3C(=O)NO)[C@H]2O[Si](C)(C)C(C)(C)C)c(=O)[nH]c1=O`: the GI50 was 2.07 µM (inactive) in the experiment on CAKI-1; 0.634 µM (active) in the experiment on CCRF-CEM; 1.76 µM (inactive) in the experiment on COLO 205; 1.61 µM (inactive) in the experiment with HCC 2998; 1.76 µM (inactive) with HOP-62; 1.94 µM (inactive) with HOP-92. Also, the GI50 was 1.53 µM (inactive) in the experiment with HT-29; 1.85 µM (inactive) with M14; 1.52 µM (inactive) with NCI-H522; 1.78 µM (inactive) with OVCAR-5; 2.26 µM (inactive) in the experiment with PC-3; 1.18 µM (inactive) in the experiment with RPMI-8226. The GI50 was 1.77 µM (inactive) in the experiment with SF-295; 1.61 µM (inactive) in the experiment on SN12C; 2.29 µM (inactive) in the experiment on TK-10; 1.7 µM (inactive) with U-251; 2.59 µM (inactive) with UACC-257.

For `CSc1nn(C)cc2nc(C)nc1-2`, the GI50 in the experiment on CAKI-1, in the experiment on CCRF-CEM, with COLO 205, in the experiment with HOP-62, in the experiment on HT-29 and in the experiment on M14 was > 100 µM (inactive) throughout. The GI50 in the experiment on OVCAR-5, with PC-3, with RPMI-8226, in the experiment with SF-295, in the experiment with SN12C and in the experiment on SR was > 100 µM (inactive) in each case. The GI50 in the experiment with TK-10, in the experiment on U-251 and in the experiment with UACC-257 was > 100 µM (inactive) throughout.

On to `COc1cc(C(C)=O)cc(C(=O)N(C(C)C)C(C)C)c1[Si](C)(C)C`, for which the GI50 is > 100 µM (inactive) in the experiment with CAKI-1; > 100 µM (inactive) in the experiment with CCRF-CEM; > 100 µM (inactive) with COLO 205; > 100 µM (inactive) in the experiment with HOP-62; 99.3 µM (inactive) with HOP-92; > 100 µM (inactive) in the experiment on M14. In addition, the GI50 in the experiment on NCI-H522 was 34.8 µM (inactive); with PC-3, > 100 µM (inactive); in the experiment with SF-295, > 100 µM (inactive); in the experiment on TK-10 it was > 100 µM (inactive); in the experiment with U-251, > 100 µM (inactive); in the experiment with UACC-257, > 100 µM (inactive).

Consider `N#CC1C(=O)SC2c3ccccc3C(=O)c3ccccc3C12` (stereo not drawn), for which the GI50 in the experiment with CAKI-1, in the experiment on CCRF-CEM, in the experiment with COLO 205, with HCC 2998, with HOP-62 and in the experiment with HT-29 was > 10 µM (inactive) throughout. Besides, the GI50 with M14, in the experiment with OVCAR-5, in the experiment with PC-3, in the experiment with RPMI-8226, with SF-295 and with SN12C was > 10 µM (inactive) throughout. The GI50 with SR, with TK-10, in the experiment with U-251 and in the experiment on UACC-257 was > 10 µM (inactive) throughout.

Turning to `CN(CCc1ccccn1)c1ccc2c(c1)C(=O)c1ccccc1-2`, the GI50 was > 100 µM (inactive) in the experiment on CAKI-1; > 100 µM (inactive) in the experiment with CCRF-CEM; 35.5 µM (inactive) in the experiment on COLO 205; > 100 µM (inactive) in the experiment on HCC 2998; > 100 µM (inactive) with HOP-62; 15.2 µM (inactive) in the experiment on HOP-92. Also, the GI50 with HT-29 was 66.4 µM (inactive); with M14 it was > 100 µM (inactive); in the experiment with NCI-H522, 71.1 µM (inactive); with OVCAR-5, > 100 µM (inactive); with PC-3 it was > 100 µM (inactive); in the experiment on RPMI-8226 it was 38.3 µM (inactive). In addition, the GI50 in the experiment on SF-295 was 91.4 µM (inactive); in the experiment on SN12C, 53.8 µM (inactive); with TK-10 it was > 100 µM (inactive); in the experiment on U-251, 43.3 µM (inactive); in the experiment with UACC-257 it was 54.6 µM (inactive).

Take `CC(=O)/C(=C/NC(=S)c1cccnc1)C(=O)Nc1ccccc1C`: the GI50 is 41.3 µM (inactive) in the experiment with CAKI-1; > 100 µM (inactive) with CCRF-CEM; > 100 µM (inactive) in the experiment on COLO 205; > 100 µM (inactive) in the experiment with HCC 2998; > 100 µM (inactive) with HOP-62; > 100 µM (inactive) with HOP-92. Moreover, the GI50 was > 100 µM (inactive) in the experiment with HT-29; > 100 µM (inactive) in the experiment with M14; 96.6 µM (inactive) with NCI-H522; > 100 µM (inactive) with OVCAR-5; 68.9 µM (inactive) in the experiment on PC-3; > 100 µM (inactive) in the experiment with RPMI-8226. Moreover, the GI50 in the experiment on SF-295 was > 100 µM (inactive); in the experiment with SN12C, > 100 µM (inactive); in the experiment with TK-10, > 100 µM (inactive); in the experiment with U-251, 71.9 µM (inactive); in the experiment with UACC-257, > 100 µM (inactive).

As to `CN(CCc1ccccn1)c1ccc2c(c1)Cc1ccccc1-2`, the GI50 was 61.4 µM (inactive) with CAKI-1; 10.2 µM (inactive) in the experiment with CCRF-CEM; 15.7 µM (inactive) in the experiment with COLO 205; 29.5 µM (inactive) with HCC 2998; 16.1 µM (inactive) in the experiment on HOP-62; 10.2 µM (inactive) in the experiment with HOP-92. The GI50 in the experiment with HT-29 was 23.1 µM (inactive); in the experiment with M14 it was 26.7 µM (inactive); in the experiment on NCI-H522, 8.69 µM (inactive); in the experiment on OVCAR-5 it was 28.4 µM (inactive); in the experiment on PC-3 it was 2.92 µM (inactive); with RPMI-8226, 14.1 µM (inactive). Further, the GI50 with SF-295 was 12.1 µM (inactive); with SN12C it was 33.8 µM (inactive); with TK-10, 31.5 µM (inactive); in the experiment on U-251, 5.35 µM (inactive); in the experiment with UACC-257 it was 26.2 µM (inactive).

Regarding `Clc1ccc2c(NCCCC/N=C/c3ccccc3)ccnc2c1`, the GI50 was 6.49 µM (inactive) with CCRF-CEM; 4.53 µM (inactive) in the experiment on COLO 205; 14.5 µM (inactive) with HCC 2998; 10 µM (inactive) in the experiment with HOP-62; 5.52 µM (inactive) in the experiment with HOP-92; 5.18 µM (inactive) in the experiment on HT-29. The GI50 with M14 was 14.4 µM (inactive); in the experiment on NCI-H522, 11.8 µM (inactive); in the experiment with OVCAR-5, 13 µM (inactive); in the experiment on PC-3 it was 10.4 µM (inactive); in the experiment on RPMI-8226 it was 18.1 µM (inactive); in the experiment with SF-295, 10.4 µM (inactive). For the same molecule, the GI50 is 5.69 µM (inactive) in the experiment on SN12C, 18.6 µM (inactive) in the experiment on TK-10, 11 µM (inactive) in the experiment with U-251 and 12.3 µM (inactive) in the experiment on UACC-257.

For the molecule `CC(C)C(=O)/C=C/S/C=C/C(=O)C(C)C`, the GI50 in the experiment with CAKI-1 is 3.56 µM (inactive); in the experiment with COLO 205, 2.94 µM (inactive); with HOP-62 it was 21.2 µM (inactive); with HT-29, 4.09 µM (inactive); in the experiment on M14, 3.92 µM (inactive); in the experiment with NCI-H522 it was 1.19 µM (inactive). Moreover, the GI50 in the experiment on OVCAR-5 was 5.27 µM (inactive); in the experiment on SF-295, 34.9 µM (inactive); in the experiment with SN12C, 14.2 µM (inactive); in the experiment with TK-10, > 100 µM (inactive); in the experiment with U-251, 18.6 µM (inactive); in the experiment on UACC-257 it was 2.72 µM (inactive).

`O=C(O)C[n+]1cn(NC(=O)Cc2ccccc2)cn1`: the GI50 with CAKI-1, in the experiment on CCRF-CEM, in the experiment on COLO 205, in the experiment with HCC 2998, in the experiment with HOP-62 and in the experiment on HOP-92 was > 10 µM (inactive) throughout. Also, the GI50 in the experiment on HT-29 is > 10 µM (inactive); with M14 it was > 10 µM (inactive); in the experiment with NCI-H522 it was > 10 µM (inactive); in the experiment with OVCAR-5, > 10 µM (inactive); with RPMI-8226, 0.501 µM (active); with SF-295, > 10 µM (inactive). The GI50 with SN12C, with SR, with TK-10, in the experiment on U-251 and in the experiment with UACC-257 was > 10 µM (inactive) in each case.

On to `CCCCOC(=O)C(O)Cc1ccoc1` (stereo not drawn), for which the GI50 in the experiment on CCRF-CEM, in the experiment with COLO 205, in the experiment with HCC 2998, with HOP-62, in the experiment on HT-29 and with M14 was > 100 µM (inactive) throughout. The GI50 in the experiment with NCI-H522, in the experiment with OVCAR-5, in the experiment on PC-3, in the experiment on RPMI-8226, with SF-295 and in the experiment with SN12C was > 100 µM (inactive) throughout. For the same molecule, the GI50 with TK-10 and with U-251 was > 100 µM (inactive) each time.

As for `C[C@]12CC[C@@H]3c4ccc(OP(=O)(O)O)cc4CC[C@H]3[C@@H]1CCC2=O`, the GI50 in the experiment with CAKI-1 is > 100 µM (inactive); with CCRF-CEM, 27.6 µM (inactive); in the experiment with COLO 205, > 100 µM (inactive); in the experiment with HCC 2998, > 100 µM (inactive); in the experiment with HOP-62, > 100 µM (inactive); with HOP-92, > 100 µM (inactive). In addition, the GI50 with HT-29 is 63.1 µM (inactive); in the experiment with M14, 61.4 µM (inactive); in the experiment on NCI-H522, 33.4 µM (inactive); in the experiment with OVCAR-5 it was > 100 µM (inactive); with PC-3, 62.4 µM (inactive); in the experiment on RPMI-8226 it was 44.4 µM (inactive). Also, the GI50 in the experiment with SF-295 is 71.8 µM (inactive); with SN12C, 70.1 µM (inactive); in the experiment with TK-10, > 100 µM (inactive); in the experiment with U-251 it was 93.3 µM (inactive); in the experiment on UACC-257 it was > 100 µM (inactive).
